Molecular target: T1, Human HPK1, catalytic domain (Homo sapiens, UniProt Q92918)
T1 construct: purchased Carna
T1 sequence (Q92918 1-346): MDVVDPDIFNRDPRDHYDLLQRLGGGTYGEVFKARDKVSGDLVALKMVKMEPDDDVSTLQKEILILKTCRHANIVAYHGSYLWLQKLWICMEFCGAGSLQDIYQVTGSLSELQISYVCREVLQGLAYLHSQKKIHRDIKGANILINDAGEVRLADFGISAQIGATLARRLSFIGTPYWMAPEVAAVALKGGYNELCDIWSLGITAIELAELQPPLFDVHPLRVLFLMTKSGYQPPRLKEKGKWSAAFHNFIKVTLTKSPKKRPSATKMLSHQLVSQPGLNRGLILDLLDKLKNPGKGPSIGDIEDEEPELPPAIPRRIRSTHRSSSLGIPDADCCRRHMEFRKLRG
Assay: HPK1-SLP76 TR-FRET assay
Assay type: biochemical
Settings: 75 pM HPK1, 10 uM ATP, 10 nM SLP76, 30 min compound pre-incubation

Row | SMILES | IC50 [nM]
1 | COc1cc2c(cc1Nc1ncc(C(N)=O)c(Nc3ccccc3Br)n1)CN(CC(F)(F)F)CC2 [Example 10-2, 4-((2-bromophenyl)amino)-2-((6-methoxy-2-(2,2,2--trifluoroethyl)-1,2,3,4-tetrahydroisoquinolin-7-yl)amino)pyrimidine-5-carboxamide] | 246
2 | NC(=O)c1cnc(Nc2ccc(CC(F)(F)F)cc2)nc1Nc1cccc2c1CCNC2=O [Example 25-44, 4-[(1-oxo-1,2,3,4-tetrahydroisoquinolin-5-yl)amino]-2-{[4-(2,2,2-trifluoroethyl)phenyl]amino}pyrimidine-5-carboxamide] | 1.95
3 | NC(=O)c1cnc(Nc2cnn3c2OCCC3)nc1Nc1cccc2c1CCNC2=O [Example 7-57, 2-[(6,7-dihydro-5H-pyrazolo[5,1-b][1,3]oxazin-3-yl)amino]-4-[(1-oxo-1,2,3,4-tetrahydroisoquinolin-5-yl)amino]pyrimidine-5-carboxamide] | 1.31
4 | Cc1ccc(C)c(Nc2ncc(C(N)=O)c(Nc3cccc4c3CCNC4=O)n2)c1 [Example 25-36, 2-[(2,5-dimethylphenyl)amino]-4-[(1-oxo-1,2,3,4-tetrahydroisoquinolin-5-yl)amino]pyrimidine-5-carboxamide] | 169
5 | COc1cc2c(cc1Nc1ncc(C(N)=O)c(NC3CC4C5CCC(C5)C34)n1)CN(C)CC2 (stereo not shown) [Example 26-15, 2-[(6-methoxy-2-methyl-1,2,3,4-tetrahydroisoquinolin-7-yl)amino]-4-[(tricyclo[4.2.1.0~2,5~]nonan-3-yl)amino]pyrimidine-5-carboxamide] | 0.25
6 | COCC(=O)N1CCc2cc(OC)c(Nc3ncc(C(N)=O)c(Nc4ccccc4Br)n3)cc2C1 [Example 12-5, 4-[(2-bromophenyl)amino]-2-{[6-methoxy-2-(methoxyacetyl)-1,2,3,4-tetrahydroisoquinolin-7-yl]amino}pyrimidine-5-carboxamide] | 112
7 | NC(=O)c1cnc(Nc2cnn(C3CCC3)c2)nc1Nc1cccc2c1CCNC2=O [Example 7-51, 2-[(1-cyclobutyl-1H-pyrazol-4-yl)amino]-4-[(1-oxo-1,2,3,4-tetrahydroisoquinolin-5-yl)amino]pyrimidine-5-carboxamide] | 4.21
8 | CCc1ccc(Nc2ncc(C(N)=O)c(Nc3cccc4c3CCNC4=O)n2)cc1 [Example 25-9, 2-[(4-ethylphenyl)amino]-4-[(1-oxo-1,2,3,4-tetrahydroisoquinolin-5-yl)amino]pyrimidine-5-carboxamide] | 12.1
9 | NC(=O)c1cnc(Nc2ccc(F)cc2F)nc1Nc1cccc2c1CCNC2=O [Example 25-17, 2-[(2,4-difluorophenyl)amino]-4-[(1-oxo-1,2,3,4-tetrahydroisoquinolin-5-yl)amino]pyrimidine-5-carboxamide] | 333
10 | NC(=O)c1cnc(Nc2ccc3c(c2)COC3=O)nc1Nc1ccccc1Br [Example 7-103, 4-[(2-bromopehnyl)amino]-2-[(1-oxo-1,3-dihydro-2-benzofuran-5-yl)amino]pyrimidine-5-carboxamide] | 188
11 | Cn1cc(Nc2ncc(C(N)=O)c(Nc3cccc4c3CCNC4=O)n2)c(OCC(F)F)n1 [Example 7-55, 2-{[3-(2,2-difluoroethoxy)-1-methyl-1H-pyrazol-4-yl]amino}-4-[(1-oxo-1,2,3,4-tetrahydroisoquinolin-5-yl)amino]pyrimidine-5-carboxamide] | 15.3
12 | NC(=O)c1cnc(Nc2cnn3c2CCCC3)nc1Nc1cccc2c1CCNC2=O [Example 7-53, 4-[(1-oxo-1,2,3,4-tetrahydroisoquinolin-5-yl)amino]-2-[(4,5,6,7-tetrahydropyrazolo[1,5-a]pyridin-3-yl)amino]pyrimidine-5-carboxamide] | 3.94
13 | COc1cc2c(cc1Nc1ncc(C(N)=O)c(Nc3ccccc3Br)n1)CN(C(=O)CC(F)(F)F)CC2 [Example 12-11, 4-[(2-bromophenyl)amino]-2-{[6-methoxy-2-(3,3,3-trifluoropropanoyl)-1,2,3,4-tetrahydroisoquinolin-7-yl]amino}pyrimidine-5-carboxamide] | 11.1
14 | Cc1cccc(Nc2ncc(C(N)=O)c(Nc3cccc4c3CCNC4=O)n2)c1 [Example 25-19, 2-[(3-methylphenyl)amino]-4-[(1-oxo-1,2,3,4-tetrahydroisoquinolin-5-yl)amino]pyrimidine-5-carboxamide] | 2.61
15 | Cc1cccc(F)c1Nc1nc(Nc2cnn(C)c2)ncc1C(N)=O [Example 4-35, 4-[(2-fluoro-6-methylphenyl)amino]-2-[(1-methyl-1H-pyrazol-4-yl)amino]pyrimidine-5-carboxamide] | 158
16 | C[C@@H](Nc1ncc(C(N)=O)c(Nc2cccc3c2CCNC3=O)n1)c1ccc(F)cc1 [Example 25-8, 2-{[(1R)-1-(4-fluorophenyl)ethyl]amino}-4-[(1-oxo-1,2,3,4-tetrahydroisoquinolin-5-yl)amino]pyrimidine-5-carboxamide] | 176

Next, values leading:

Row | IC50 [nM] | SMILES
17 | 0.6 | COc1cc2c(cc1Nc1ncc(C(N)=O)c(NC3CCCCC3)n1)CN(C)CC2 [Example 26-2, 4-(cyclohexylamino)-2-[(6-methoxy-2-methyl-1,2,3,4-tetrahydroisoquinolin-7-yl)amino]pyrimidine-5-carboxamide]
18 | 0.91 | COc1cc2c(cc1Nc1ncc(C(N)=O)c(Nc3c(C)nn(C)c3C)n1)CN(C)CC2 [Example 7-80, 2-((6-methoxy-2-methyl-1,2,3,4-tetrahydroisoquinolin-7-yl)amino)-4-((1,3,5-trimethyl-1H-pyrazol-4-yl)amino)pyrimidine-5-carboxamide]
19 | 15 | COc1cc2c(cc1Nc1ncc(C(N)=O)c(Nc3ccc(F)c(C#N)c3)n1)CN(C)CC2 [Example 7-26, 4-[(3-cyano-4-fluorophenyl)amino]-2-[(6-methoxy-2-methyl-1,2,3,4-tetrahydroisoquinolin-7-yl)amino]pyrimidine-5-carboxamide]
20 | 9.79 | COc1cc2c(cc1Nc1ncc(C(N)=O)c(N[C@H]3CC[C@@H](N)CC3)n1)CN(C)CC2 [Example 26-5, 4-[(cis-4-aminocyclohexyl)amino]-2-[(6-methoxy-2-methyl-1,2,3,4-tetrahydroisoquinolin-7-yl)amino]pyrimidine-5-carboxamide]
21 | 42.5 | COc1ccc2c(c1)C(Nc1nc(Nc3cc4c(cc3OC)CCN(C)C4)ncc1C(N)=O)CC2 (stereo not shown) [Example 26-69, 4-[(6-methoxy-2,3-dihydro-1H-inden-1-yl)amino]-2-[(6-methoxy-2-methyl-1,2,3,4-tetrahydroisoquinolin-7-yl)amino]pyrimidine-5-carboxamide]
22 | 9.16 | COc1cc2c(cc1Nc1ncc(C(N)=O)c(Nc3ccnn3C)n1)CN(C)CC2 [Example 7-88, 2-((6-methoxy-2-methyl-1,2,3,4-tetrahydroisoquinolin-7-yl)amino)-4-((1-methyl-1H-pyrazol-5-yl)amino)pyrimidine-5-carboxamide]
23 | 0.19 | COc1cc2c(cc1Nc1ncc(C(N)=O)c(Nc3cccc4c3OC(C)(C)C4)n1)CN(C)CC2 [Example 7-14, 4-[(2,2-dimethyl-2,3-dihydro-1-benzofuran-7-yl)amino]-2-[(6-methoxy-2-methyl-1,2,3,4-tetrahydroisoquinolin-7-yl)amino]pyrimidine-5-carboxamide]
24 | 0.45 | COc1cc2c(cc1Nc1ncc(C(N)=O)c(N[C@H](C)c3cccc(F)c3F)n1)CN(C)CC2 [Example 26-20, 4-{[(1R)-1-(2,3-difluorophenyl)ethyl]amino}-2-[(6-methoxy-2-methyl-1,2,3,4-tetrahydroisoquinolin-7-yl)amino]pyrimidine-5-carboxamide]
25 | 0.29 | COc1cc2c(cc1Nc1ncc(C(N)=O)c(Nc3cccc(F)c3)n1)CN(C)CC2 [Example 7-18, 4-[(3-fluorophenyl)amino]-2-[(6-methoxy-2-methyl-1,2,3,4-tetrahydroisoquinolin-7-yl)amino]pyrimidine-5-carboxamide]
26 | 0.95 | COc1cc2c(cc1Nc1ncc(C(N)=O)c(NCc3cccc(F)c3F)n1)CN(C)CC2 [Example 26-9, 4-{[(2,3-difluorophenyl)methyl]amino}-2-[(6-methoxy-2-methyl-1,2,3,4-tetrahydroisoquinolin-7-yl)amino]pyrimidine-5-carboxamide]
27 | 0.03 | CCOc1ccccc1Nc1nc(Nc2cc3c(cc2OC)CCN(C)C3)ncc1C(N)=O [Example 7-112, 4-[(2-ethoxyphenyl)amino]-2-[(6-methoxy-2-methyl-1,2,3,4-tetrahydroisoquinolin-7-yl)amino]pyrimidine-5-carboxamide]
28 | 10.9 | COc1cc2c(cc1Nc1ncc(C(N)=O)c(Nc3cc(C)nn3-c3ccccc3)n1)CN(C)CC2 [Example 7-92, 2-((6-methoxy-2-methyl-1,2,3,4-tetrahydroisoquinolin-7-yl)amino)-4-((3-methyl-1-phenyl-1H-pyrazol-5-yl)amino)pyrimidine-5-carboxamide]
29 | 30.6 | COc1cc2c(cc1Nc1ncc(C(N)=O)c(Nc3ccccc3Cc3ccccc3)n1)CN(C)CC2 [Example 13-3, 4-[(2-benzylphenyl)amino]-2-[(6-methoxy-2-methyl-1,2,3,4-tetrahydroisoquinolin-7-yl)amino]pyrimidine-5-carboxamide]
30 | 0.46 | COc1cc2c(cc1Nc1ncc(C(N)=O)c(N[C@@H]3CCCC[C@H]3C(F)F)n1)CN(C)CC2 [Example 26-33, 4-{[(1R,2R)-2-(difluoromethyl)cyclohexyl]amino}-2-[(6-methoxy-2-methyl-1,2,3,4-tetrahydroisoquinolin-7-yl)amino]pyrimidine-5-carboxamide]
31 | 0.17 | CCC(C)c1ccccc1Nc1nc(Nc2cc3c(cc2OC)CCN(C)C3)ncc1C(N)=O (stereo not shown) [Example 7-23, 4-{[2-(butan-2-yl)phenyl]amino}-2-[(6-methoxy-2-methyl-1,2,3,4-tetrahydroisoquinolin-7-yl)amino]pyrimidine-5-carboxamide]

— patent US20230416225A1, “DIAMINOPYRIMIDINE CARBOXAMIDE INHIBITORS OF HPK1” (MERCK SHARP & DOHME LLC, priority 2020, published 2023)
